PubChem BioAssay (NCI)
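The compound was tested at five concentrations on cells cultured in 96-well plates, with a 48-hour exposure period. At the GI50, growth is halved. TGI: total growth inhibition.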

Columns and labels:
Test in all cases: DTP human tumour cell line panel, 48 h
OVCAR-8 ovarian = tested on: OVCAR-8 ovarian
LOX IMVI melanoma = tested on: LOX IMVI melanoma
MDA-MB-231 breast = tested on: MDA-MB-231 breast
CAKI-1 renal = tested on: CAKI-1 renal
SK-MEL-2 melanoma = tested on: SK-MEL-2 melanoma
NCI-H226 lung = tested on: NCI-H226 lung
SNB-19 CNS = tested on: SNB-19 CNS
SK-MEL-28 melanoma = tested on: SK-MEL-28 melanoma
A498 renal = tested on: A498 renal
HCC-2998 colon = tested on: HCC-2998 colon

Structure (SMILES) | GI50 (OVCAR-8 ovarian) [µM] | TGI (OVCAR-8 ovarian) [µM] | TGI (LOX IMVI melanoma) [µM] | GI50 (MDA-MB-231 breast) [µM] | TGI (MDA-MB-231 breast) [µM] | GI50 (CAKI-1 renal) [µM] | TGI (CAKI-1 renal) [µM] | GI50 (SK-MEL-2 melanoma) [µM] | TGI (SK-MEL-2 melanoma) [µM] | GI50 (NCI-H226 lung) [µM] | TGI (NCI-H226 lung) [µM] | GI50 (SNB-19 CNS) [µM] | TGI (SNB-19 CNS) [µM] | TGI (SK-MEL-28 melanoma) [µM] | GI50 (A498 renal) [µM] | TGI (A498 renal) [µM] | GI50 (HCC-2998 colon) [µM] | TGI (HCC-2998 colon) [µM] | GI50 (LOX IMVI melanoma) [µM] | GI50 (SK-MEL-28 melanoma) [µM]
CC(=O)OC(C)(C)/C(C)=C/C(=O)O[C@H]1C(=O)O[C@@H]2C[C@H]3[C@H](C)C(=O)C(O[C@@H]4O[C@H](CO)[C@@H](O)[C@H](O)[C@H]4O)=C[C@]3(C)[C@H]3[C@@H](O)[C@H](O)[C@@]4(C(=O)O)OC[C@]32[C@@H]14 | > 100 | > 100 | > 100 | > 100 | > 100 | > 100 | > 100 | > 100 | > 100 | 72.8 | > 100 | > 100 | > 100 | > 100 | > 100 | > 100 | 36.5 | > 100 |  | 
CNC(=O)c1ccccc1Nc1nc(Nc2cc(OC)c(OC)c(OC)c2)ncc1Br | 0.0483 | 12.2 | 0.0917 | 0.033 | 0.263 | 0.0155 | 0.275 | 0.0171 | 0.0499 | 0.0265 | 0.214 | 0.12 | 2.53 | 2.11 | < 0.0109 | 0.0368 | 0.027 | 1.54 | 0.0183 | 0.0667
CCC(=C/[C@H](C)C/C=C/C(C)=C/[C@@H](C)C(=O)[C@@H](C)[C@H](O)[C@@H](C)CC)/C=C/[C@@H]1OC(=O)C=C[C@H]1C | < 0.01 | 1.41 | < 0.01 | < 0.01 | 1.77 | < 0.01 | < 0.01 | < 0.01 | < 0.01 | < 0.01 | 0.0539 | < 0.01 |  | 1.58 | < 0.01 | < 0.01 | < 0.01 | < 0.01 | < 0.01 | < 0.01
N=c1ccn(O)cc1/C=C1/C(=O)Nc2ccccc21 | > 100 | > 100 | > 100 | > 100 | > 100 | > 100 | > 100 | > 100 | > 100 | > 100 | > 100 | > 100 | > 100 | > 100 | > 100 | > 100 | > 100 | > 100 | > 100 | > 100
CN(Cc1ccccc1)c1ccc(CO)c(Cl)c1 | 20.7 | > 100 | > 100 | 34.1 | > 100 | 2.93 | 50.9 | 8.78 | 49.2 | 0.142 | 0.324 | > 84.3 | > 100 | > 100 | 0.0652 | 0.212 | 13 | 51.9 | 45.8 | 50.5
Cn1c2c(c3ccc([N+](=O)[O-])cc3c1=O)C(=O)c1ccccc1-2 | > 100 | > 100 | > 100 | > 100 | > 100 | 80.5 | > 100 | > 100 | > 100 | > 100 | > 100 | > 100 | > 100 | > 100 | > 100 | > 100 | > 100 | > 100 | > 100 | > 100
O=Nc1ccc(NO)c2ccccc12 | 3.24 | 14.6 | 12.1 | 10.3 | 47.5 | 12.2 | 25.2 | 18.3 | 34.4 | 16.8 | 38.4 | 15.1 | 28.5 | 28.6 | 18.9 | 36 | 17.4 | 31.7 | 2.78 | 15.1
NCCCCCCCn1c2c(c3ccccc3c1=O)C(=O)c1ccccc1-2 | 1.69 | 4.82 | 2.76 | 1.85 | 3.79 | 1.96 | 5.25 | 2.33 | 5.68 | 8.37 | 22.2 | 1.86 | 4.82 | 3.23 | 3.26 | 11.8 | 2.69 | 7.56 | 1.33 | 1.75
Cc1nnc(-c2cccc(-c3ccc(C(=O)NCC4CC4)cc3)c2)o1 | > 25 | > 25 | > 25 | > 25 | > 25 | > 25 | > 25 | > 25 | > 25 | > 25 | > 25 | > 25 | > 25 | > 25 | > 7.79 | > 25 | > 25 | > 25 | > 25 | > 25
O=C(Nc1ccncc1)C(=O)c1cn(S(=O)(=O)c2ccc(Cl)cc2)c2ccccc12 | 1.63 | 97.1 | > 100 | 3.69 | 32.3 | 1.86 | > 100 | 3.24 | 27.3 | 9.4 | > 100 | 5.94 | 51.5 | > 50.4 | 8.83 | > 74.9 | 10.3 | > 100 | 0.765 | 1.06
CC1CCCC(C(O)CC2CC(=O)NC(=O)C2)C1O (configuration not stated) |  | > 100 | > 100 |  | > 100 |  | > 100 |  | > 100 |  | > 100 |  | > 100 | > 100 |  | > 100 |  | > 100 |  | 
CC(C)=CCC[C@](C)(O)[C@H]1CC[C@]2(C)[C@@H]1CC[C@@H]1[C@@]3(C)CC/C(=N/O)C(C)(C)[C@@H]3CC[C@]12C | 12 | 86.2 | 83 | 9.95 | 37.4 | 10.4 | 50.7 | 15.3 | 60.5 | 9.75 | 47.5 | 12.2 | > 100 | > 100 | 51.2 | > 100 | 12.9 | 50.8 | 15.7 | 26.5
